Measurements: patent US7161032B2, “Sulfonamide derivatives, insecticides for agricultural and horticultural use, and usage thereof” (Nihon Nohyaku Co., Ltd., priority 2002, dated 2007)

Columns and labels:
Format in all cases: in vivo
[1] = test system: Smaller Tea Tortrix (Adoxophyes sp.); experiment: Insecticidal effect on smaller tea tortrix (Test Example 3): tea leaves immersed in 50 ppm liquid chemical; settings: smaller tea tortrix (Adoxophyes sp.) larvae, 8 days after inoculation, 25° C., humidity 70%
Outline: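 Tea leaves dipped about 30 seconds in 50 ppm compound preparation, air-dried, then infested with larvae and held at 25° C and 70% humidity. Dead and alive counted 8 days after inoculation; triplicate groups of 10 insects.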

[2] = test system: Diamond Back Moth (Plutella xylostella); experiment: Insecticidal effect on diamond back moth (Test Example 1): egg-bearing Chinese cabbage seedling immersed in 50 ppm liquid chemical
Outline: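 Seedlings bearing 2-day-old eggs dipped about 30 s in 50 ppm formulated compound, air-dried, held at 25° C. Hatched larvae counted 6 days after immersion; mortality calculated and graded by criterion. Triplicate groups of 10 insects.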

[3] = test system: Common Cutworm (Spodoptera litura); experiment: Insecticidal effect on common cutworm (Test Example 2): cabbage leaf piece immersed in 50 ppm liquid chemical; settings: common cutworm (Spodoptera litura) second-instar larvae, 8 days after inoculation, 25° C.
Outline: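 Cabbage leaf pieces (cv. Shikidori) dipped ~30 s in formulated compound at 50 ppm and air-dried. Second-instar larvae added, kept at 25° C. Dead and alive counted at 8 days to give % mortality, scored against a criterion scale; three groups of 10 insects.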

COC(=O)N1CCN(S(=O)(=O)CC(C)NC(=O)c2c(I)cccc2C(=O)Nc2ccc(C(F)(C(F)(F)F)C(F)(F)F)cc2C)CC1 (stereo not drawn) [1-66]
Insecticidal effect (mortality grade), Test Example 3 [1]: A (Mortality 100%) | Insecticidal effect (mortality grade), Test Example 1 [2]: A (Mortality 100%) | Insecticidal effect (mortality grade), Test Example 2 [3]: A (Mortality 100%)

Cc1cc(C(F)(C(F)(F)F)C(F)(F)F)ccc1NC(=O)c1cccc(I)c1C(=O)NC(C)(C)CS(=O)(=O)N1CCS(=O)(=O)CC1 [1-60]
Insecticidal effect (mortality grade), Test Example 3 [1]: E (Mortality less than 50%) | Insecticidal effect (mortality grade), Test Example 1 [2]: A (Mortality 100%) | Insecticidal effect (mortality grade), Test Example 2 [3]: A (Mortality 100%)

Cc1cc(C(F)(C(F)(F)F)C(F)(F)F)ccc1NC(=O)c1cccc(I)c1C(=O)NC(C)CS(=O)(=O)NCCCl (stereo not drawn) [1-71]
Insecticidal effect (mortality grade), Test Example 3 [1]: A (Mortality 100%) | Insecticidal effect (mortality grade), Test Example 1 [2]: A (Mortality 100%) | Insecticidal effect (mortality grade), Test Example 2 [3]: A (Mortality 100%)

Cc1cc(C(F)(F)C(F)(F)F)ccc1NC(=O)c1cccc(I)c1C(=O)NC(C)(C)CS(=O)(=O)NCC[S+](C)[O-] (stereo not drawn) [1-305]
Insecticidal effect (mortality grade), Test Example 3 [1]: A (Mortality 100%) | Insecticidal effect (mortality grade), Test Example 1 [2]: A (Mortality 100%) | Insecticidal effect (mortality grade), Test Example 2 [3]: A (Mortality 100%)

Cc1cc(C(F)(C(F)(F)F)C(F)(F)F)ccc1NC(=O)c1cccc(I)c1C(=O)NC(C)CS(=O)(=O)NCc1cccc(C#N)c1 (stereo not drawn) [1-31]
Insecticidal effect (mortality grade), Test Example 3 [1]: A (Mortality 100%) | Insecticidal effect (mortality grade), Test Example 1 [2]: A (Mortality 100%) | Insecticidal effect (mortality grade), Test Example 2 [3]: A (Mortality 100%)

Cc1cc(C(F)(C(F)(F)F)C(F)(F)F)ccc1NC(=O)c1cccc(I)c1C(=O)NC(C)CS(=O)(=O)NCCS(C)(=O)=O (stereo not drawn) [1-77]
Insecticidal effect (mortality grade), Test Example 3 [1]: A (Mortality 100%) | Insecticidal effect (mortality grade), Test Example 1 [2]: A (Mortality 100%) | Insecticidal effect (mortality grade), Test Example 2 [3]: A (Mortality 100%)

Cc1cc(C(F)(C(F)(F)F)C(F)(F)F)ccc1NC(=O)c1cccc(I)c1C(=O)NC(C)CS(=O)(=O)NC(C)CS(C)(=O)=O (stereo not drawn) [1-93]
Insecticidal effect (mortality grade), Test Example 3 [1]: A (Mortality 100%) | Insecticidal effect (mortality grade), Test Example 1 [2]: A (Mortality 100%) | Insecticidal effect (mortality grade), Test Example 2 [3]: A (Mortality 100%)

CCN(CC)S(=O)(=O)CC(C)NC(=O)c1c(I)cccc1C(=O)Nc1ccc(OC(F)(F)F)cc1Cl (stereo not drawn) [1-285]
Insecticidal effect (mortality grade), Test Example 3 [1]: E (Mortality less than 50%) | Insecticidal effect (mortality grade), Test Example 1 [2]: A (Mortality 100%) | Insecticidal effect (mortality grade), Test Example 2 [3]: C (Mortality 89–80%)

CCN(CC)S(=O)(=O)CCCC(C)(C)NC(=O)c1c(I)cccc1C(=O)Nc1ccc(C(F)(C(F)(F)F)C(F)(F)F)cc1C [1-201]
Insecticidal effect (mortality grade), Test Example 3 [1]: A (Mortality 100%) | Insecticidal effect (mortality grade), Test Example 1 [2]: A (Mortality 100%) | Insecticidal effect (mortality grade), Test Example 2 [3]: A (Mortality 100%)

CCN(CC)S(=O)(=O)CC(C)(C)NC(=O)c1c(Br)cccc1C(=O)Nc1ccc(C(F)(C(F)(F)F)C(F)(F)F)cc1C [1-219]
Insecticidal effect (mortality grade), Test Example 3 [1]: A (Mortality 100%) | Insecticidal effect (mortality grade), Test Example 1 [2]: A (Mortality 100%) | Insecticidal effect (mortality grade), Test Example 2 [3]: A (Mortality 100%)

CCSCCNS(=O)(=O)CC(C)(C)NC(=O)c1c(I)cccc1C(=O)Nc1ccc(C(F)(F)C(F)(F)F)cc1C [1-307]
Insecticidal effect (mortality grade), Test Example 3 [1]: A (Mortality 100%) | Insecticidal effect (mortality grade), Test Example 1 [2]: A (Mortality 100%) | Insecticidal effect (mortality grade), Test Example 2 [3]: A (Mortality 100%)

CCN(CC)S(=O)(=O)CC(C)NC(=O)c1c(I)cccc1C(=O)Nc1ccc(OC(F)(F)F)cc1C (stereo not drawn) [1-276]
Insecticidal effect (mortality grade), Test Example 3 [1]: E (Mortality less than 50%) | Insecticidal effect (mortality grade), Test Example 1 [2]: A (Mortality 100%) | Insecticidal effect (mortality grade), Test Example 2 [3]: E (Mortality less than 50%)

Cc1cc(C(F)(C(F)(F)F)C(F)(F)F)ccc1NC(=O)c1cccc(I)c1C(=O)NC(C)CS(=O)(=O)NCc1ccccc1F (stereo not drawn) [1-23]
Insecticidal effect (mortality grade), Test Example 3 [1]: A (Mortality 100%) | Insecticidal effect (mortality grade), Test Example 1 [2]: A (Mortality 100%) | Insecticidal effect (mortality grade), Test Example 2 [3]: A (Mortality 100%)

Cc1cc(C(F)(C(F)(F)F)C(F)(F)F)ccc1NC(=O)c1cccc(I)c1C(=O)NC(C)(C)CS(=O)(=O)NCCS(=O)(=O)c1ccccc1 [1-89]
Insecticidal effect (mortality grade), Test Example 3 [1]: A (Mortality 100%) | Insecticidal effect (mortality grade), Test Example 1 [2]: A (Mortality 100%) | Insecticidal effect (mortality grade), Test Example 2 [3]: A (Mortality 100%)

CCN(CC)S(=O)(=O)CC(C)(C)NC(=O)c1c(I)cccc1C(=O)Nc1ccc(C(F)(F)C(F)(F)F)cc1C [1-302]
Insecticidal effect (mortality grade), Test Example 3 [1]: A (Mortality 100%) | Insecticidal effect (mortality grade), Test Example 1 [2]: A (Mortality 100%) | Insecticidal effect (mortality grade), Test Example 2 [3]: A (Mortality 100%)

Cc1cc(C(F)(C(F)(F)F)C(F)(F)F)ccc1NC(=O)c1cccc(I)c1C(=O)NC(C)CS(=O)(=O)N1CC[S+]([O-])CC1 (stereo not drawn) [1-56]
Insecticidal effect (mortality grade), Test Example 3 [1]: A (Mortality 100%) | Insecticidal effect (mortality grade), Test Example 1 [2]: A (Mortality 100%) | Insecticidal effect (mortality grade), Test Example 2 [3]: A (Mortality 100%)

Cc1cc(C(F)(C(F)(F)F)C(F)(F)F)ccc1NC(=O)c1cccc(I)c1C(=O)NC(C)(C)CS(=O)(=O)NCCO [1-78]
Insecticidal effect (mortality grade), Test Example 3 [1]: A (Mortality 100%) | Insecticidal effect (mortality grade), Test Example 1 [2]: A (Mortality 100%) | Insecticidal effect (mortality grade), Test Example 2 [3]: E (Mortality less than 50%)

Cc1cc(C(F)(C(F)(F)F)C(F)(F)F)ccc1NC(=O)c1cccc(I)c1C(=O)NC(C)(C)CS(=O)(=O)N1CCSCC1 [1-58]
Insecticidal effect (mortality grade), Test Example 3 [1]: E (Mortality less than 50%) | Insecticidal effect (mortality grade), Test Example 1 [2]: A (Mortality 100%) | Insecticidal effect (mortality grade), Test Example 2 [3]: A (Mortality 100%)

Cc1cc(C(F)(C(F)(F)F)C(F)(F)F)ccc1NC(=O)c1cccc(I)c1C(=O)N[C@@H](C)CS(=O)(=O)N[C@@H](C)CS(C)(=O)=O [1-149]
Insecticidal effect (mortality grade), Test Example 3 [1]: A (Mortality 100%) | Insecticidal effect (mortality grade), Test Example 1 [2]: A (Mortality 100%) | Insecticidal effect (mortality grade), Test Example 2 [3]: A (Mortality 100%)

Cc1cc(C(F)(C(F)(F)F)C(F)(F)F)ccc1NC(=O)c1cccc(I)c1C(=O)NC(C)(C)CS(=O)(=O)NCCSc1ccccc1 [1-87]
Insecticidal effect (mortality grade), Test Example 3 [1]: A (Mortality 100%) | Insecticidal effect (mortality grade), Test Example 1 [2]: A (Mortality 100%) | Insecticidal effect (mortality grade), Test Example 2 [3]: A (Mortality 100%)

Cc1cc(C(F)(C(F)(F)F)C(F)(F)F)ccc1NC(=O)c1cccc(I)c1C(=O)NC(C)CS(=O)(=O)NCc1ccncc1 (stereo not drawn) [1-41]
Insecticidal effect (mortality grade), Test Example 3 [1]: A (Mortality 100%) | Insecticidal effect (mortality grade), Test Example 1 [2]: A (Mortality 100%) | Insecticidal effect (mortality grade), Test Example 2 [3]: A (Mortality 100%)

Cc1cc(C(F)(C(F)(F)F)C(F)(F)F)ccc1NC(=O)c1cccc(I)c1C(=O)NC(C)CS(=O)(=O)NCc1cccnc1 (stereo not drawn) [1-40]
Insecticidal effect (mortality grade), Test Example 3 [1]: A (Mortality 100%) | Insecticidal effect (mortality grade), Test Example 1 [2]: A (Mortality 100%) | Insecticidal effect (mortality grade), Test Example 2 [3]: A (Mortality 100%)

Cc1cc(C(F)(C(F)(F)F)C(F)(F)F)ccc1NC(=O)c1cccc(I)c1C(=O)NC(C)CS(=O)(=O)N[C@H](C)c1ccccc1 (stereo partly drawn) [1-45]
Insecticidal effect (mortality grade), Test Example 3 [1]: A (Mortality 100%) | Insecticidal effect (mortality grade), Test Example 1 [2]: A (Mortality 100%) | Insecticidal effect (mortality grade), Test Example 2 [3]: A (Mortality 100%)

CCN(CC)S(=O)(=O)CC(C)(C)NC(=O)c1ccccc1C(=O)Nc1ccc(C(F)(C(F)(F)F)C(F)(F)F)cc1C [1-208]
Insecticidal effect (mortality grade), Test Example 3 [1]: A (Mortality 100%) | Insecticidal effect (mortality grade), Test Example 1 [2]: A (Mortality 100%) | Insecticidal effect (mortality grade), Test Example 2 [3]: E (Mortality less than 50%)

COc1cccc(CNS(=O)(=O)CC(C)NC(=O)c2c(I)cccc2C(=O)Nc2ccc(C(F)(C(F)(F)F)C(F)(F)F)cc2C)c1 (stereo not drawn) [1-29]
Insecticidal effect (mortality grade), Test Example 3 [1]: A (Mortality 100%) | Insecticidal effect (mortality grade), Test Example 1 [2]: A (Mortality 100%) | Insecticidal effect (mortality grade), Test Example 2 [3]: A (Mortality 100%)

Cc1cc(C(F)(C(F)(F)F)C(F)(F)F)ccc1NC(=O)c1cccc(I)c1C(=O)NC(C)CS(=O)(=O)NCc1ccccc1Br (stereo not drawn) [1-25]
Insecticidal effect (mortality grade), Test Example 3 [1]: A (Mortality 100%) | Insecticidal effect (mortality grade), Test Example 1 [2]: A (Mortality 100%) | Insecticidal effect (mortality grade), Test Example 2 [3]: A (Mortality 100%)

CCN(CC)S(=O)(=O)CC(C)(C)NC(=O)c1c(I)cccc1C(=O)Nc1ccc(C(F)(C(F)(F)F)C(F)(F)F)cc1C [1-179]
Insecticidal effect (mortality grade), Test Example 3 [1]: A (Mortality 100%) | Insecticidal effect (mortality grade), Test Example 1 [2]: A (Mortality 100%) | Insecticidal effect (mortality grade), Test Example 2 [3]: A (Mortality 100%)

Cc1cc(C(F)(F)C(F)(F)F)ccc1NC(=O)c1cccc(I)c1C(=O)NC(C)(C)CS(=O)(=O)NCCS(C)(=O)=O [1-306]
Insecticidal effect (mortality grade), Test Example 3 [1]: A (Mortality 100%) | Insecticidal effect (mortality grade), Test Example 1 [2]: A (Mortality 100%) | Insecticidal effect (mortality grade), Test Example 2 [3]: A (Mortality 100%)

Cc1cc(C(F)(C(F)(F)F)C(F)(F)F)ccc1NC(=O)c1cccc(I)c1C(=O)NC(C)CS(=O)(=O)N(C)Cc1ccccc1 (stereo not drawn) [1-42]
Insecticidal effect (mortality grade), Test Example 3 [1]: A (Mortality 100%) | Insecticidal effect (mortality grade), Test Example 1 [2]: A (Mortality 100%) | Insecticidal effect (mortality grade), Test Example 2 [3]: A (Mortality 100%)

COc1cccc(OC)c1CNS(=O)(=O)CC(C)NC(=O)c1c(I)cccc1C(=O)Nc1ccc(C(F)(C(F)(F)F)C(F)(F)F)cc1C (stereo not drawn) [1-32]
Insecticidal effect (mortality grade), Test Example 3 [1]: A (Mortality 100%) | Insecticidal effect (mortality grade), Test Example 1 [2]: A (Mortality 100%) | Insecticidal effect (mortality grade), Test Example 2 [3]: A (Mortality 100%)
